Results on two molecules are retold here after ChEMBL document CHEMBL5303761, “Data for DCP probe BI-3231” (2023).

Data set [1] deals with Cannabinoid receptor 2 (Homo sapiens) (UniProt P34972). Description: CB2/PERIPH/H Eurofins SafetyScreen44 (BI). Particulars: Compound concentration 10.0 uM; call rule not given here.
The target in data set [2] is T1, Muscarinic acetylcholine receptor M2 (Homo sapiens) (UniProt P08172).
T1 sequence (whole entry): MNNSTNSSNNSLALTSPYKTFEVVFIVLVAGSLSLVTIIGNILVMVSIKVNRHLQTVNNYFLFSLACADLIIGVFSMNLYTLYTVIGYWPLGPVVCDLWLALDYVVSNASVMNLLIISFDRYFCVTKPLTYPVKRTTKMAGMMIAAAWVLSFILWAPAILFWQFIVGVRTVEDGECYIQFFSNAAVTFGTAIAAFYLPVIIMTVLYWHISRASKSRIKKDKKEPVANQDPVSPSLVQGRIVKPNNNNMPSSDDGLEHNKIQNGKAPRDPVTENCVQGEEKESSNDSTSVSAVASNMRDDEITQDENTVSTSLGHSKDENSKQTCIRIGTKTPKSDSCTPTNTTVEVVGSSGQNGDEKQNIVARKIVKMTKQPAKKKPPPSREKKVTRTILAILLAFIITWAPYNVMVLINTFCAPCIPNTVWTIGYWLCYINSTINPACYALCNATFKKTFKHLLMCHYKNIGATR
Description: M2/H Eurofins SafetyScreen44 (BI). The following applies: filed as antagonist, Compound concentration 10.0 uM.

Data set [3] deals with Vasopressin V1a receptor (Homo sapiens) (UniProt P37288). In words: V1A/HUM Eurofins SafetyScreen44 (BI). The following applies: Compound concentration 10.0 uM.
For data set [4], the target named is Histamine H4 receptor (Homo sapiens) (UniProt Q9H3N8). Particulars: Compound concentration 10.0 uM.
For data set [5], the target named is GABA-A receptor; anion channel (Rattus norvegicus) (UniProt O09028+P15431+P18506+P18508+P19969+P20236+P23574+P23576+P28471+P28473+P30191+P62813+P63079+P63138+Q91ZM7+Q9ES14). In words: BZD/CENTR/R Eurofins SafetyScreen44 (BI). It counts as protein-complex assay. The following applies: Compound concentration 10.0 uM.
The target of data set [6] is Alpha-1B adrenergic receptor (Homo sapiens) (UniProt P35368). The following applies: Compound concentration 10.0 uM.
Data set [7] concerns the target T2, Alpha-2A adrenergic receptor (Homo sapiens) (UniProt P08913).
T2 sequence (whole entry): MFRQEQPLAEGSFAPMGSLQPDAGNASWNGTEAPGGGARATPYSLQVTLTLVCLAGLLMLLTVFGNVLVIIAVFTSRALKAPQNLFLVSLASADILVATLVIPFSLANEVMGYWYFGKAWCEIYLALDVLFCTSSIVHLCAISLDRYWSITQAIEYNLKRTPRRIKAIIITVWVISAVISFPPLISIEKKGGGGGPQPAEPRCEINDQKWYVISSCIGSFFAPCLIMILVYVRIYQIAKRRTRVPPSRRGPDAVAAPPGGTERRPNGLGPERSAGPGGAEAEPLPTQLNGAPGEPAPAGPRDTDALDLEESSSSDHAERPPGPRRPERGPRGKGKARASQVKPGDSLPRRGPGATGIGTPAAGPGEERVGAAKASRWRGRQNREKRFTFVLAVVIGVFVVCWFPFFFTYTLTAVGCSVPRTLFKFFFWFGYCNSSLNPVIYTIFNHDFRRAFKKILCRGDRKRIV
In words: ALPHA2A/HU Eurofins SafetyScreen44 (BI). The following applies: Compound concentration 10.0 uM.

For data set [8], the target named is L-type Ca2+ channel (dihydropyridine site), Cav1.2 alpha-1C (Rattus norvegicus, UniProt P22002). Description: CA+/DHPSI/R Eurofins SafetyScreen44 (BI). The following applies: rat brain, probe [3H](+)PN200-110, compound concentration 10 uM, read-out: % Ctrl.
The target of data set [9] is Sodium-dependent noradrenaline transporter (Homo sapiens) (UniProt P23975). The following applies: Compound concentration 10.0 uM.
Data set [10] addresses Glutamate NMDA receptor (Rattus norvegicus) (UniProt P35439+Q00959+Q00960+Q00961+Q62645+Q8VHN2+Q9R1M7). Description: NMDA/R Eurofins SafetyScreen44 (BI). Type of data set: protein-complex assay. The following applies: Compound concentration 10.0 uM.
Data set [11] concerns the target D(1A) dopamine receptor (Homo sapiens) (UniProt P21728). In words: D1/H Eurofins SafetyScreen44 (BI). Particulars: filed as antagonist, Compound concentration 10.0 uM.
Data set [12] addresses Alpha-1D adrenergic receptor (Homo sapiens) (UniProt P25100). The following applies: Compound concentration 10.0 uM.
The target in data set [13] is T3, Alpha-1A adrenergic receptor (Homo sapiens) (UniProt P35348).
T3 sequence (whole entry): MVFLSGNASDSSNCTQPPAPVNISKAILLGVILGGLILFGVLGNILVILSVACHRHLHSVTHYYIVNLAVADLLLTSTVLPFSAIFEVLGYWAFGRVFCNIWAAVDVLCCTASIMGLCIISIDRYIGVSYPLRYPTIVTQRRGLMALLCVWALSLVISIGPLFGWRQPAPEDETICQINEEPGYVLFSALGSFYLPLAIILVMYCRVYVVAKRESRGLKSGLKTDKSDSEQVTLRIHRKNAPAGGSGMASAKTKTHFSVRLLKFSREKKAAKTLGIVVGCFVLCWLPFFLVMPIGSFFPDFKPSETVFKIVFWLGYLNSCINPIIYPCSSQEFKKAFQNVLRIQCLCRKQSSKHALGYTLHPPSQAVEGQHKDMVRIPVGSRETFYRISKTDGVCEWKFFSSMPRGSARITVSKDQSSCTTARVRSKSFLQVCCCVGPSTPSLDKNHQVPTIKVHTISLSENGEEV
In words: ALPHA1AH_ANTAG Eurofins SafetyScreen44 (BI). Particulars: filed as antagonist, Compound concentration 10.0 uM.

For data set [14], the target named is Histamine H1 receptor (Homo sapiens) (UniProt P35367). The following applies: Compound concentration 10.0 uM.
Data set [15] concerns the target Sodium-dependent noradrenaline transporter (Homo sapiens) (UniProt P23975). Description: NEUP/H Eurofins SafetyScreen44 (BI). Particulars: Compound concentration 10.0 uM.
Data set [16] has as its target Endothelin-1 receptor (Homo sapiens) (UniProt P25101). Description: ETA/H Eurofins SafetyScreen44 (BI). Particulars: Compound concentration 10.0 uM.
The target of data set [17] is 5-hydroxytryptamine receptor 2B (Homo sapiens) (UniProt P41595). In words: 5HT2B/H AG Eurofins SafetyScreen44 (BI). Particulars: filed as agonist, Compound concentration 10.0 uM.
Data set [18] has as its target Histamine H2 receptor (Homo sapiens) (UniProt P25021). Particulars: Compound concentration 10.0 uM.
Data set [19] deals with Muscarinic acetylcholine receptor M4 (Homo sapiens) (UniProt P08173). Particulars: Compound concentration 10.0 uM.
Data set [20] concerns the target 5-hydroxytryptamine receptor 1B (Homo sapiens) (UniProt P28222). Particulars: Compound concentration 10.0 uM.
Data set [21] deals with voltage-gated Na+ channel (site 2) (Rattus norvegicus, UniProt F1LQQ7+O08562+O88420+O88457+P04774+P04775+P08104+P15389+P15390+Q62968). Description: NA+/SITE2/R Eurofins SafetyScreen44 (BI). Type of data set: protein assay. The following applies: rat brain, probe [3H]batrachotoxinin, compound concentration 10 uM, read-out: % Ctrl.
The target of data set [22] is Delta-type opioid receptor (Homo sapiens) (UniProt P41143). Description: DELTA2/H Eurofins SafetyScreen44 (BI). Particulars: Compound concentration 10.0 uM.

In general, inhibition refers to the change of the read-out against control, counted positive when it falls.

Histamine H4 receptor (Homo sapiens), sequence (Q9H3N8 whole entry): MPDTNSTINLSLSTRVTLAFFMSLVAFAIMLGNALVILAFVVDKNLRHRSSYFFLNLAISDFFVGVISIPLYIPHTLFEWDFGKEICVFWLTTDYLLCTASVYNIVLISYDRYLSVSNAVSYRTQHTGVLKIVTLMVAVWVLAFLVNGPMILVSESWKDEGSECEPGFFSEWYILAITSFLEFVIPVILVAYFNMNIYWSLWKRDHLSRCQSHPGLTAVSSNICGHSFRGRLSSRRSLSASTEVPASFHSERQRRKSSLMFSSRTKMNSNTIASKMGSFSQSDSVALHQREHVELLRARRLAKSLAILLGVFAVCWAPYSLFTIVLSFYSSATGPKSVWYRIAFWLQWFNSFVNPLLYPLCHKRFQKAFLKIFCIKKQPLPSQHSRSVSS
Muscarinic acetylcholine receptor M4 (Homo sapiens), sequence (P08173 whole entry): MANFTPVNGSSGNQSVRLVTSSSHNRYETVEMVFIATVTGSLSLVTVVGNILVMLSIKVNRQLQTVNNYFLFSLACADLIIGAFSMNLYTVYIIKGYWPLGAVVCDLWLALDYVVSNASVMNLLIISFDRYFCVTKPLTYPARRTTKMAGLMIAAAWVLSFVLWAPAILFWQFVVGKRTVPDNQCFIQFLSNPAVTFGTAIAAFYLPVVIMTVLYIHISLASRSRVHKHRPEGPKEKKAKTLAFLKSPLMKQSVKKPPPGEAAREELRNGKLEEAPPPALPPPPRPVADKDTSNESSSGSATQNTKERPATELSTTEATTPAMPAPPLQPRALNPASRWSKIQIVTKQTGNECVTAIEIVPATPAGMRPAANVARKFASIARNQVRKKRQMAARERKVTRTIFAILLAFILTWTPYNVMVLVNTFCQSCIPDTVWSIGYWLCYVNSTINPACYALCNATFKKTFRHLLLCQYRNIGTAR
Alpha-1B adrenergic receptor (Homo sapiens), sequence (P35368 whole entry): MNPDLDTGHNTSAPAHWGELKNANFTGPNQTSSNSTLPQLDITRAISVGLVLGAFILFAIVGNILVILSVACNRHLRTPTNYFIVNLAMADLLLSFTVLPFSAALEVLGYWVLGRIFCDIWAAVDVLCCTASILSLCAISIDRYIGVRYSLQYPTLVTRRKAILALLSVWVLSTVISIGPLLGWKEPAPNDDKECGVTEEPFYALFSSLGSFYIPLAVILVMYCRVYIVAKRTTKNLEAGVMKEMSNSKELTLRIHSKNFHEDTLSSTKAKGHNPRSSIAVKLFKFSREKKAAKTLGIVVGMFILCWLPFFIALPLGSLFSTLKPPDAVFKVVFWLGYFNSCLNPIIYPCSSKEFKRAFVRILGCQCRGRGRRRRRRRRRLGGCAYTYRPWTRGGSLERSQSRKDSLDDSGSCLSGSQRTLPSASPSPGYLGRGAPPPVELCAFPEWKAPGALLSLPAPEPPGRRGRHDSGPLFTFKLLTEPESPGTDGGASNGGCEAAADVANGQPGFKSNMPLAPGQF
Histamine H2 receptor (Homo sapiens), sequence (P25021 whole entry): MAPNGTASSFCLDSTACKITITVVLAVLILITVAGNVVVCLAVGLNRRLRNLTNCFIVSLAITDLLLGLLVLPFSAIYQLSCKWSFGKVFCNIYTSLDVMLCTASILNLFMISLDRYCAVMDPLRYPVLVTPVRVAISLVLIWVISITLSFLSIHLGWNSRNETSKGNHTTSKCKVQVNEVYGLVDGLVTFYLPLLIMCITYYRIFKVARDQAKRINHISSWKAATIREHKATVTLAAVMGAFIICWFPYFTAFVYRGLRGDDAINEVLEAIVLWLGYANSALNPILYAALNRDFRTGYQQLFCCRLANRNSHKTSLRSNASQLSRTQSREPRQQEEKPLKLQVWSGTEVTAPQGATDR
Alpha-1D adrenergic receptor (Homo sapiens), sequence (P25100 whole entry): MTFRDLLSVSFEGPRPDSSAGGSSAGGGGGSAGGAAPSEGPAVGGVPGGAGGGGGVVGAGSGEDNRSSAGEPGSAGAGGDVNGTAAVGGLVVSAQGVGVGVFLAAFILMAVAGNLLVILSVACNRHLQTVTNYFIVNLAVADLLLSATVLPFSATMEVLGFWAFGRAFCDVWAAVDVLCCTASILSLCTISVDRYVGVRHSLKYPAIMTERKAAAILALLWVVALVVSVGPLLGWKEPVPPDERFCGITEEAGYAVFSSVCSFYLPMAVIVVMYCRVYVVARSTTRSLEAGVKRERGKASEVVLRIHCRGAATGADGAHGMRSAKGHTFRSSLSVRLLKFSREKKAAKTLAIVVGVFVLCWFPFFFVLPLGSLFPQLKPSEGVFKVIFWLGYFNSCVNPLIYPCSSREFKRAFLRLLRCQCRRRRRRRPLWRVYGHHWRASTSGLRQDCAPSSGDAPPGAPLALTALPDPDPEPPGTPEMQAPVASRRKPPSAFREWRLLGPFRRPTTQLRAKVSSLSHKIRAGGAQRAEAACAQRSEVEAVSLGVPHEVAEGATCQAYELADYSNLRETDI
Sodium-dependent noradrenaline transporter (Homo sapiens), sequence (P23975 whole entry): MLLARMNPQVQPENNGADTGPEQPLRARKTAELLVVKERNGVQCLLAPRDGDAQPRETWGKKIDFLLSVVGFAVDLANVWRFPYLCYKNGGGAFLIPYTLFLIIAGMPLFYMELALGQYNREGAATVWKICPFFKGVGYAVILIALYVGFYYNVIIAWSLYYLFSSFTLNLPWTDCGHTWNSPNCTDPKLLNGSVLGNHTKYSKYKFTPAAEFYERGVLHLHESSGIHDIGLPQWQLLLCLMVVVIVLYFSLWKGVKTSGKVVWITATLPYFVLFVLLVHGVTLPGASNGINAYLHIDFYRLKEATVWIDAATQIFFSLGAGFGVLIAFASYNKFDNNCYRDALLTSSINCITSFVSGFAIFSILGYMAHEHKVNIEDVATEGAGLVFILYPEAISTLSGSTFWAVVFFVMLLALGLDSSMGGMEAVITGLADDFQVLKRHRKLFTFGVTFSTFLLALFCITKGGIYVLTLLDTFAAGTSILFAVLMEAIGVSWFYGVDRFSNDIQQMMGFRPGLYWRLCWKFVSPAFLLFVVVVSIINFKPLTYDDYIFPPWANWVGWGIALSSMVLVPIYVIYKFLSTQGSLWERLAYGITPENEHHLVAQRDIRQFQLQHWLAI
Histamine H1 receptor (Homo sapiens), sequence (P35367 whole entry): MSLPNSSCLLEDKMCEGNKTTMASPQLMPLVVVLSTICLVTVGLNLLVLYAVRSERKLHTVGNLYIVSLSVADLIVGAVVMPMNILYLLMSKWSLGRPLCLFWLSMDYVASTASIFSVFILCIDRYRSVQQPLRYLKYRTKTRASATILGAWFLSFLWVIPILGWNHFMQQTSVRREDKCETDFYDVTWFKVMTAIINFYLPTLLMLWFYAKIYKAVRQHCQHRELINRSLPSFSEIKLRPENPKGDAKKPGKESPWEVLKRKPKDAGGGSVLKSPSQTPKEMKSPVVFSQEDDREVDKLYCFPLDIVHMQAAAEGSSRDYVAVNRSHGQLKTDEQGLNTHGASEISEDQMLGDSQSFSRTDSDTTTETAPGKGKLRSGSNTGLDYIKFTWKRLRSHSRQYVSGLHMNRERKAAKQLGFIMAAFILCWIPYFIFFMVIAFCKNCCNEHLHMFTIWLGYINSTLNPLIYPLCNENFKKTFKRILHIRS
5-hydroxytryptamine receptor 1B (Homo sapiens), sequence (P28222 whole entry): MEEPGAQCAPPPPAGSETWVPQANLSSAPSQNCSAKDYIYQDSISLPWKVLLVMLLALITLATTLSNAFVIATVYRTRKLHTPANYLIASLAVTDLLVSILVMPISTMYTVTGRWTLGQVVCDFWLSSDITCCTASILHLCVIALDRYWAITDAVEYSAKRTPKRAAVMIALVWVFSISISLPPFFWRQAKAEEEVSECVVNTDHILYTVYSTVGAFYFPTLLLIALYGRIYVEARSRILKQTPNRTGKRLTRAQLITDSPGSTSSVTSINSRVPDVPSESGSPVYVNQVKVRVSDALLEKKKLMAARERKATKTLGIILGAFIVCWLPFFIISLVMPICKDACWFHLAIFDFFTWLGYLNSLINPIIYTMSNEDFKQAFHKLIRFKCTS
Cannabinoid receptor 2 (Homo sapiens), sequence (P34972 whole entry): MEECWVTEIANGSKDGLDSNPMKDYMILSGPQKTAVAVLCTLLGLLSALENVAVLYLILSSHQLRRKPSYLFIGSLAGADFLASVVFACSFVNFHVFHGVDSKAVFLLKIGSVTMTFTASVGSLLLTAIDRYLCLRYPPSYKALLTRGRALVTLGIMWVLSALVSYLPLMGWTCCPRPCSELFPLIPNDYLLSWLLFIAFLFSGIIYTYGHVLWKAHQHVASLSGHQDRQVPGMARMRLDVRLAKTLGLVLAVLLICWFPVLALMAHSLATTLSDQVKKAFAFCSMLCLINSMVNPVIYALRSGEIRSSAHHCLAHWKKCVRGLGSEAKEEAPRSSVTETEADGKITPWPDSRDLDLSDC
5-hydroxytryptamine receptor 2B (Homo sapiens), sequence (P41595 whole entry): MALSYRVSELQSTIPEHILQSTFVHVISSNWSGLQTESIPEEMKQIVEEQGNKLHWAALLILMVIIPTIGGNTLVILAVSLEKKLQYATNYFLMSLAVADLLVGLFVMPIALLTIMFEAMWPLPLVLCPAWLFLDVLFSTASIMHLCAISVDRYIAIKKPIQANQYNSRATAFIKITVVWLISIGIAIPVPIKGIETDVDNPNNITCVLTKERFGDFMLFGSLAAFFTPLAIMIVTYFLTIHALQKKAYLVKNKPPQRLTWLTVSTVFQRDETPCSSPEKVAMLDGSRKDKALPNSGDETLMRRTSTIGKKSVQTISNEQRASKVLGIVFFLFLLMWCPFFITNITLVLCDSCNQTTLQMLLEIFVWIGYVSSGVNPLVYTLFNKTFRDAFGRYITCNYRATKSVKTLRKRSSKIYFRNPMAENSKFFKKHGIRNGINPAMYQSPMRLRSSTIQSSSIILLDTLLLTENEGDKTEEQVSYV

With `CCn1c(=O)c(C)cn(Cc2nnc(-c3ccc(F)c(OC)c3F)s2)c1=O`, the residual activity was 110% in [1]; 113% in [2]; 103% in data set [3]; 94% in [5]; 87% in data set [7]; 103% in [10]. Besides, the residual activity in data set [11] was 97%; in data set [13], 88%; in data set [15] it was 92%; in [16], 104%; in [17] it was 45%; in data set [22], 103%. The inhibition in [4] is -9.96%; in data set [6], -0.13%; in data set [9], 3.37%; in data set [12] it was 5.29%; in [14], -3.42%; in data set [18] it was -1.31%. Also, the inhibition in data set [19] was 0.65%; in data set [20] it was 8.52%. Besides, the activity at 10 µM was 93% (not active) in data set [8] and 88% (not active) in data set [21].
Take `CCn1c(=O)c(C)cn(Cc2nnc(-c3ccc(F)c(O)c3F)s2)c1=O`: the residual activity in data set [1] is 98%; in [2] it was 106%; in data set [3], 100%; in [5], 115%; in [7], 113%; in data set [10], 104%. The residual activity was 105% in [11]; 107% in data set [13]; 88% in data set [15]; 97% in data set [16]; 83% in data set [17]; 95% in [22]. Moreover, the inhibition was 3.99% in data set [4]; -10% in data set [6]; 3.4% in [9]; -1.34% in [12]; 8.66% in data set [14]; -3.03% in [18]. Moreover, the inhibition in [19] is -2.34%; in [20] it was 16%. Also, the activity at 10 µM in data set [8] is listed as 84% (not active); in data set [21], 73% (not active).
